One data set deals with H9 cells. Briefly: Effect of Ed6Br and 420 nm light on H9 cells (Trypan Blue). Further details: live cells / dead cells: unit not given here. The class given is cell-based, human. The method, then: H9 cells (an immortal human T-cell lymphoma) were cultured in RPMI-1640 medium containing 10% additional fetal calf serum hold in air with a 5% CO2 atmosphere at 37.5° C. to a cell density in the range of 10^5 -10^7 per ml. Cells were, harvested by centrifugation and six 3ml. […] The remaining 3 samples wrapped in aluminum foil were handled identically but not irradiated. Immediately after irradiation, the cells in all samples were sedimented by centrifugation at 450 x g for 10 minutes and the cell pellets individually resuspended to the original 3 ml volume of RPMI-1640 containing an additional 10% fetal calf serum plus Gentamycin antibiotic. The samples were incubated for 24 hr. under normal culture conditions cited above. Cell viability was assessed by Trypan Blue dye exclusion counts using a standard hemocytometer after 24 hr incubation. […]

Data set [1] concerns Vesicular stomatitis Virus (Ogden strain) (VSV), G-protein. It is filed as biochemical. To be noted: 10.0 μM, 460 J/cm^2.
[2] abbreviates: 5 μM, irradiated 10 J/cm^2, 420 nm.
The mark [3] stands for this setting: 25 μM, irradiated 10 J/cm^2, 420 nm.
The mark [4] stands for this setting: 2 G-protein units or 1 G-protein + 2 M-protein units.

Some results are limits rather than exact numbers.

On to `CCCCCCNc1c(Br)cc2c3c(cccc13)C(=O)N(CCCCCC)C2=O` [Compound VII, 3-bromo-4-(hexyl)amino-N-hexyl-1,8-naphthalimide], for which the Cells/ml is 7.70 × 10^5 Cells/ml with H9 cells (5 μM, dark); 0.0 Cells/ml in the data set on H9 cells (setting [2]); 9.9 × 10^5 Cells/ml in the data set on H9 cells (25 μM, dark); 0.0 Cells/ml with H9 cells (setting [3]). For the same compound, the “dead cells” value is 12 with H9 cells (5 μM, dark); 47 in the data set on H9 cells (setting [2]); 11 in the data set with H9 cells (25 μM, dark); 41 with H9 cells (setting [3]). The “live cells” value is recorded as 77 in the data set with H9 cells (5 μM, dark); 0 with H9 cells (setting [2]); 99 in the data set on H9 cells (25 μM, dark); 0 with H9 cells (setting [3]). In the data set on H9 cells (5 mM or greater (so in the source), activated by light, 1440 min), the “H9 cells inactivated or killed” value is given as around 100%. Further, the cytotoxicity at 25 µM in the data set with H9 cells (Homo sapiens, H9, 24 h, 25 µM, dark, printed approximately 10% or less, read-out: cells inactivated in absence of light) was at most 10%. The viability (in general, a per cent measure of how many cells are alive, often set against a control) at 5 µM with H9 cells (Homo sapiens, H9, light or radiation study, 24 h, 5 μM, irradiated 10 J/cm^2, 420 nm) is 0%. In addition, the viability at 25 µM in the data set with H9 cells (Homo sapiens, H9, light or radiation study, 24 h, 25 μM, irradiated 10 J/cm^2, 420 nm) came out at 0%.

Take `CCCCCCN1C(=O)c2cccc3c(NCCNC(=O)CCCCC(=O)NCCNc4c(Br)cc5c6c(cccc46)C(=O)N(CCCCCC)C5=O)c(Br)cc(c23)C1=O` [Compound XLIV]: the heavier bands result in data set [1] is “many ill separated heavier bands merging together near”. In data set [1] (setting [4]), the “Inferred Crosslinked Species” value is listed as 2 G-protein and the “Inferred Crosslinked Species, Gel mw” value amounted to 130 kD.

Source of the values: patent US5235045A, “Non-azo naphthalimide dyes” (priority 1992, dated 1993).
